One may read the IC50 as the midpoint of a concentration-inhibition curve.

In one experiment the target is T1, c-kit (Homo sapiens, UniProt P10721).
T1 construct: human Mo7e cells which endogenously express c-kit; endogenous in cells; host or cells: human Mo7e cells (promegakaryocytic leukemia line), stimulated with human recombinant SCF
T1 sequence (P10721 26-976): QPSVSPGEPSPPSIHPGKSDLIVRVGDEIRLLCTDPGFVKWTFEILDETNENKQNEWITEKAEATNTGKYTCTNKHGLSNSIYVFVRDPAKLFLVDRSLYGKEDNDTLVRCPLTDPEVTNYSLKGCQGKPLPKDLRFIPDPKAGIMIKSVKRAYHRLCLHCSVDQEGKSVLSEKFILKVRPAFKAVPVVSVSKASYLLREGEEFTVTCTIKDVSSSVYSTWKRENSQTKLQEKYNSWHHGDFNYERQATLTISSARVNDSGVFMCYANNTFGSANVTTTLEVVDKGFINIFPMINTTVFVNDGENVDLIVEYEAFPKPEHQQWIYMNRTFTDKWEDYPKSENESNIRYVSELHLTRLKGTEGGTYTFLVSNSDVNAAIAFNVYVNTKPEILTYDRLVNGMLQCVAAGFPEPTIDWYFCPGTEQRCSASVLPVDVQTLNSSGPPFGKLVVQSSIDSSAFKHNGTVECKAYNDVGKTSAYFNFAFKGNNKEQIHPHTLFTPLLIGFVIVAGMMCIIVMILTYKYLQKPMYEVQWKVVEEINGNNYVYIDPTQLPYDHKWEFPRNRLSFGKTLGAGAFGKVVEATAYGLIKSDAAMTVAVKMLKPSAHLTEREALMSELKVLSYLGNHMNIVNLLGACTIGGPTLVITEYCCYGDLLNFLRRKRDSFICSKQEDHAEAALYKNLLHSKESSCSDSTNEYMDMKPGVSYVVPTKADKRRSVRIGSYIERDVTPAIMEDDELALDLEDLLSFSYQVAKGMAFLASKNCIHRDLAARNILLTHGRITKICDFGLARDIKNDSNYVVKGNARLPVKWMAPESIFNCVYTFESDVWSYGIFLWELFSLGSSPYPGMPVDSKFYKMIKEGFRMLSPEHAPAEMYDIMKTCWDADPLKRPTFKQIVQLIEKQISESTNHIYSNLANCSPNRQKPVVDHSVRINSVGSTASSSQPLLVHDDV
Nature of the experiment: Mo7e cell proliferation assay (SCF dependent proliferation). The class given is cell-based. The conditions noted are these: Table 1; Mo7e cells stimulated with human recombinant SCF, 48 hours; 1% FBS. On the procedure:
Compounds of Formula (I) and Formula (II) provided herein were assayed to measure their capacity to inhibit c-kit and PDGFR kinases using the appropriate assay described below: c-Kit inhibition was evaluated using the Mo7e cell proliferation assay, and PDGFR inhibition was evaluated using the Rat A10 cell proliferation assay and the Human TG/HA-VSMC cell proliferation assay.
The compounds of Table 1 and Table 2 were tested for inhibition of SCF dependent proliferation using human Mo7e cells which endogenously express c-kit in a 384 well format. […] After 48 hours of incubation at 37° C., cell viability was measured by adding 25 uL of CellTiter Glo (Promega) to the cells and the luminescence was measured by a CLIPR CCD camera (Molecular Devices).
The IC50 value is given as that concentration of the test compound in question that provoke a response halfway between the baseline and maximum responses.
Take `Cc1ccc(-c2noc(-c3ccccn3)n2)cc1NC(=O)c1cnc2ccccn12` [F11, N-(2-methyl-5-(5-(pyridin-2-yl)-1,2,4-oxadiazol-3-yl)phenyl)imidazo[1,2-a]pyridine-3-carboxamide]: the half-inhibitory concentration (IC50) came to 0.075 µM. On the same count and under the same terms, the value for `Cc1nc(-c2nc(-c3ccc(C)c(NC(=O)c4cnc5ccccn45)c3)no2)c(C(F)(F)F)o1` [F22, N-(2-methyl-5-{5-[2-methyl-5-(trifluoromethyl)-1,3-oxazol-4-yl]-1,2,4-oxadiazol-3-yl}phenyl)imidazo[1,2-a]pyridine-3-carboxamide] was 0.032 µM. Take `Cc1ccnc(-c2noc(-c3ccc(C)c(NC(=O)c4cnc5ccccn45)c3)n2)c1` [F10, N-{2-methyl-5-[3-(4-methylpyridin-2-yl)-1,2,4-oxadiazol-5-yl]phenyl}imidazo[1,2-a]pyridine-3-carboxamide]: the IC50 amounted to 0.024 µM. As to `Cc1ccc(Nc2noc(-c3ccccc3)n2)cc1NC(=O)c1cnc2ccccn12` [F20, N-{2-methyl-5-[(5-phenyl-1,2,4-oxadiazol-3-yl)amino]phenyl}imidazo[1,2-a]pyridine-3-carboxamide], the IC50 was determined as 0.01 µM. With `Cc1ccc(Nc2noc(-c3ncccn3)n2)cc1NC(=O)c1cnc2ccccn12` [F19, N-(2-methyl-5-{[5-(pyrimidin-2-yl)-1,2,4-oxadiazol-3-yl]amino}phenyl)imidazo[1,2-a]pyridine-3-carboxamide], the IC50 is 0.082 µM. Turning to `Cc1ccc(-c2nc(Nc3ccccc3)no2)cc1NC(=O)c1cnc2ccccn12` [F1, N-(2-methyl-5-(3-(phenylamino)-1,2,4-oxadiazol-5-yl)phenyl)imidazo[1,2-a]pyridine-3-carboxamide], the IC50 amounted to 0.051 µM.

As to `Cc1ccc(-c2nc(-c3ccccc3)no2)cc1NC(=O)c1cnc2ccccn12` [F2, N-[2-methyl-5-(3-phenyl-1,2,4-oxadiazol-5-yl)phenyl]imidazo[1,2-a]pyridine-3-carboxamide], the IC50 was determined as 0.016 µM. In the case of `Cc1ccc(Nc2noc(-c3cscn3)n2)cc1NC(=O)c1cnc2ccccn12` [F15, N-(2-methyl-5-{[5-(1,3-thiazol-4-yl)-1,2,4-oxadiazol-3-yl]amino}phenyl)imidazo[1,2-a]pyridine-3-carboxamide], the IC50 was found to be 0.006 µM.

Still in this experiment, the particulars now being: Table 1; Mo7e cells stimulated with human recombinant SCF, 48 hours; 20% FBS (values marked *).
`Cc1ccc(-c2nc(-c3cnccc3C(F)(F)F)no2)cc1NC(=O)c1cnc2ccccn12` [F4, N-(2-methyl-5-{3-[4-(trifluoromethyl)pyridin-3-yl]-1,2,4-oxadiazol-5-yl}phenyl)imidazo[1,2-a]pyridine-3-carboxamide]: the 50% inhibitory concentration (IC50) worked out at 0.023 µM.

The same experiment, now with this note: Table 2; Mo7e cells stimulated with human recombinant SCF, 48 hours; 1% FBS.
For `Cc1ccc(-c2noc(CCc3nccn3C)n2)cc1NC(=O)c1cnc2ccccn12` [F56, N-(2-methyl-5-{5-[2-(1-methyl-1H-imidazol-2-yl)ethyl]-1,2,4-oxadiazol-3-yl}phenyl)imidazo[1,2-a]pyridine-3-carboxamide], the concentration for half-maximal inhibition (IC50) came to 0.34 µM. Regarding `Cc1ccc(-c2noc(-c3cccc(N4CCN(C)CC4)c3)n2)cc1NC(=O)c1cnc2ccccn12` [F53, N-(2-methyl-5-{5-[3-(4-methylpiperazin-1-yl)phenyl]-1,2,4-oxadiazol-3-yl}phenyl)imidazo[1,2-a]pyridine-3-carboxamide], the IC50 was 0.101 µM.

`Cc1ccc(-c2noc(-c3nccn3C)n2)cc1NC(=O)c1cnc2ccccn12` [F49, N-{2-methyl-5-[5-(1-methyl-1H-imidazol-2-yl)-1,2,4-oxadiazol-3-yl]phenyl}imidazo[1,2-a]pyridine-3-carboxamide]: the IC50 turned out to be 0.232 µM.

As for `Cc1ccc(-c2noc(-c3ccc(C)c(NC(=O)c4cnc5ccccn45)c3)n2)cc1F` [F69], the half-maximal inhibitory concentration (IC50) is above 10 µM. As to `Cc1ccc(-c2noc(-c3ccc(N4CCOCC4)cc3)n2)cc1NC(=O)c1cnc2ccccn12` [F65, N-(2-methyl-5-{5-[4-(morpholin-4-yl)phenyl]-1,2,4-oxadiazol-3-yl}phenyl)imidazo[1,2-a]pyridine-3-carboxamide], the IC50 came to 1.08 µM. The same measure, in the same setting: in the case of `Cc1ccc(-c2nc(-c3ccc(F)cc3)no2)cc1NC(=O)c1cnc2ccccn12` [F68] it was above 10 µM; in that of `Cc1ccc(-c2noc(CCn3cncn3)n2)cc1NC(=O)c1cnc2ccccn12` [F58, N-(2-methyl-5-{5-[2-(1H-1,2,4-triazol-1-yl)ethyl]-1,2,4-oxadiazol-3-yl}phenyl)imidazo[1,2-a]pyridine-3-carboxamide], 0.135 µM. In the case of `Cc1ccc(-c2nc(-c3ccc(OC(F)(F)F)cc3)no2)cc1NC(=O)c1cnc2ccccn12` [F72], the IC50 was above 10 µM.

Take `Cc1ccc(-c2noc(Cn3cncn3)n2)cc1NC(=O)c1cnc2ccccn12` [F63, N-{2-methyl-5-[5-(1H-1,2,4-triazol-1-ylmethyl)-1,2,4-oxadiazol-3-yl]phenyl}imidazo[1,2-a]pyridine-3-carboxamide]: the IC50 was 0.269 µM. Still for that read-out and setting: in the case of `Cc1ccc(-c2noc(CCc3nn[nH]n3)n2)cc1NC(=O)c1cnc2ccccn12` [F67] it was above 10 µM. Regarding `Cc1cccc(-c2noc(-c3ccc(C)c(NC(=O)c4cnc5ccccn45)c3)n2)n1` [F28, N-(2-methyl-5-(3-(6-methylpyridin-2-yl)-1,2,4-oxadiazol-5-yl)phenyl)imidazo[1,2-a]pyridine-3-carboxamide], the IC50 turned out to be 0.252 µM.

For the molecule `Cc1ccc(-c2noc(CCn3ccnc3)n2)cc1NC(=O)c1cnc2ccccn12` [F57, N-(5-{5-[2-(1H-imidazol-1-yl)ethyl]-1,2,4-oxadiazol-3-yl}-2-methylphenyl)imidazo[1,2-a]pyridine-3-carboxamide], the IC50 worked out at 0.337 µM. For `Cc1ccc(-c2noc(-c3ccc(N4CCN(C)CC4)cc3)n2)cc1NC(=O)c1cnc2ccccn12` [F54, N-(2-methyl-5-{5-[4-(4-methylpiperazin-1-yl)phenyl]-1,2,4-oxadiazol-3-yl}phenyl)imidazo[1,2-a]pyridine-3-carboxamide], the IC50 worked out at 0.37 µM.

For the molecule `Cc1ccc(-c2noc(-c3ccccn3)n2)cc1NC(=O)c1cnc2ccccn12` [F42, N-{2-methyl-5-[5-(pyridin-2-yl)-1,2,4-oxadiazol-3-yl]phenyl}imidazo[1,2-a]pyridine-3-carboxamide], the IC50 turned out to be 0.105 µM.

The experiment is the same for the next values; noted with them: Table 2; Mo7e cells stimulated with human recombinant SCF, 48 hours; 20% FBS instead of 1% FBS (values marked *).
With `Cc1ccc(-c2noc(-c3ncccn3)n2)cc1NC(=O)c1cnc2ccccn12` [F48, N-{2-methyl-5-[5-(pyrimidin-2-yl)-1,2,4-oxadiazol-3-yl]phenyl}imidazo[1,2-a]pyridine-3-carboxamide], the IC50 was determined as 0.815 µM. With `Cc1ccc(-c2nc(-c3cnccc3C)no2)cc1NC(=O)c1cnc2ccccn12` [F34, N-{2-methyl-5-[3-(4-methylpyridin-3-yl)-1,2,4-oxadiazol-5-yl]phenyl}imidazo[1,2-a]pyridine-3-carboxamide], the IC50 is 0.139 µM. Take `Cc1ccc(-c2nc(COc3ccccc3)no2)cc1NC(=O)c1cnc2ccccn12` [F32, N-{2-methyl-5-[3-(phenoxymethyl)-1,2,4-oxadiazol-5-yl]phenyl}imidazo[1,2-a]pyridine-3-carboxamide]: the IC50 worked out at 0.249 µM. The same measure, in the same setting: in the case of `COc1ccnc(-c2noc(-c3ccc(C)c(NC(=O)c4cnc5ccccn45)c3)n2)c1` [F33, N-{5-[3-(4-methoxypyridin-2-yl)-1,2,4-oxadiazol-5-yl]-2-methylphenyl}imidazo[1,2-a]pyridine-3-carboxamide] it was 0.265 µM; in that of `Cc1ccc(-c2noc(-c3cccc(N4CCOCC4)c3)n2)cc1NC(=O)c1cnc2ccccn12` [F55, N-(2-methyl-5-{5-[3-(morpholin-4-yl)phenyl]-1,2,4-oxadiazol-3-yl}phenyl)imidazo[1,2-a]pyridine-3-carboxamide], 0.33 µM.

As for `Cc1ccc(F)c(-c2noc(-c3ccc(C)c(NC(=O)c4cnc5ccccn45)c3)n2)c1` [F39, N-{5-[3-(2-fluoro-5-methylphenyl)-1,2,4-oxadiazol-5-yl]-2-methylphenyl}imidazo[1,2-a]pyridine-3-carboxamide], the IC50 was 0.104 µM.

Turning to `Cc1ccc(-c2nc(-c3c(Cl)cccc3Cl)no2)cc1NC(=O)c1cnc2ccccn12` [F26, N-{5-[3-(2,6-dichlorophenyl)-1,2,4-oxadiazol-5-yl]-2-methylphenyl}imidazo[1,2-a]pyridine-3-carboxamide], the IC50 worked out at 0.845 µM.

As to `Cc1ccc(-c2noc(-c3ccccc3)n2)cc1NC(=O)c1cnc2ccccn12` [F47, N-[2-methyl-5-(5-phenyl-1,2,4-oxadiazol-3-yl)phenyl]imidazo[1,2-a]pyridine-3-carboxamide], the IC50 amounted to 0.196 µM.

In the case of `Cc1ccc(-c2nc(-c3cccc(F)c3)no2)cc1NC(=O)c1cnc2ccccn12` [F36, N-{5-[3-(3-fluorophenyl)-1,2,4-oxadiazol-5-yl]-2-methylphenyl}imidazo[1,2-a]pyridine-3-carboxamide], the IC50 was found to be 0.173 µM. Consider `Cc1ccc(-c2nc(-c3cccnc3Cl)no2)cc1NC(=O)c1cnc2ccccn12` [F44, N-{5-[3-(2-chloropyridin-3-yl)-1,2,4-oxadiazol-5-yl]-2-methylphenyl}imidazo[1,2-a]pyridine-3-carboxamide], for which the IC50 worked out at 0.236 µM.

In the case of `COc1ccccc1Cc1noc(-c2ccc(C)c(NC(=O)c3cnc4ccccn34)c2)n1` [F45, N-(5-{3-[(2-methoxyphenyl)methyl]-1,2,4-oxadiazol-5-yl}-2-methylphenyl)imidazo[1,2-a]pyridine-3-carboxamide], the IC50 turned out to be 0.116 µM.

These data come from patent publication US20150051206A1, “COMPOUNDS AND COMPOSITIONS AS C-KIT KINASE INHIBITORS” (IRM LLC, priority 2011, published 2015).
